Results reported in ChEMBL document CHEMBL5360561, “Design, synthesis and biological evaluation of fluorinated selective estrogen receptor degraders (FSERDs) --- A promising strategy for advanced ER positive breast cancer” (Eur J Med Chem, 2023).
One block for each molecule: values may come before it. Active and inactive are the calls of the source. No cut-off for these calls is given here.

Assays:
MCF7 [1] = test: Induction of cell cycle arrest in human MCF7 cells assessed as accumulation at G0/G1 phase at 10 uM incubated for 24 hrs by flow cytometry (Rvb= 46.53 +/- 0.44%); type: functional
[2] = Toxicity in Sprague-Dawley rat uterus assessed as change in uterine wet weight at 30 mg/kg, po for 2 days consecutively; type: organism-based; conditions: in vivo, 48 h, time 2 day
Ishikawa = test: Antiproliferative activity against human Ishikawa cells assessed as cell growth inhibition at 20 uM incubated for 3 days by MTT assay; type: functional; conditions: for inhibition at 20 µM: 72 h, time 3 day
MCF7 [3] = test: Antitumor activity against human MCF7 cells xenografted in nude mouse assessed as tumor growth inhibition at 30 mg/kg,po for 30 days daily; type: functional, organism-based; conditions: time 30.0 day
MCF7 [4] = test: Stabilization of ER in human MCF7 cells at 10 uM incubated for 24 hrs by Western blot analysis; type: cell-based
MCF7 [5] = test: Antiproliferative activity against human MCF7 cells assessed as cell growth inhibition incubated for 5 days by MTT assay; type: functional, cell-based; conditions: MCF7, 120 h
[6] = Plasma concentration in ICR mouse at 100 mg/kg, po and measured after 0.5 hrs by LC-MS analysis; type: ADME, organism-based
[7] = Plasma concentration in ICR mouse at 100 mg/kg, po and measured after 0.25 hrs by LC-MS analysis; type: ADME, organism-based
[8] = Plasma concentration in ICR mouse at 100 mg/kg, po and measured after 1 hrs by LC-MS analysis; type: ADME, organism-based
MCF7 [9] = test: Induction of ER degradation in human MCF7 cells at 10 uM incubated for 24 hrs by Western blot analysis; type: cell-based
Mus musculus [10] = test: In vivo ER degradation in mouse xenografted with human MCF7 cells assessed as reduction in PR expression level in tumor at 30 mg/kg,po for 30 days daily by […]; type: functional, organism-based; conditions: time 30.0 day
MCF7 [11] = test: Induction of ER degradation in Estradiol stimulated human MCF7 cells assessed as decrease in TFF1 gene expression level at 1 to 10 uM incubated for 24 hrs by RT-qPCR analysis; type: cell-based; conditions: dose 1-10 µM
[12] = Toxicity in mouse xenografted with human MCF7 cells assessed as morphological changes in heart at 30 mg/kg,po for 30 days daily by Hematoxylin and eosin staining based microscopy; type: organism-based; conditions: in vivo, 720 h, time 30 day
[13] = Toxicity in mouse xenografted with human MCF7 cells assessed as body weight loss at 30 mg/kg,po for 30 days daily; type: organism-based; conditions: in vivo, 720 h, time 30 day
[14] = Toxicity in mouse xenografted with human MCF7 cells assessed as morphological changes in spleen at 30 mg/kg,po for 30 days daily by Hematoxylin and eosin staining based microscopy; type: organism-based; conditions: in vivo, 720 h, time 30 day
MCF7 [15] = test: Induction of ER degradation in human MCF7 cells at 0.001 to 10 uM incubated for 24 hrs by Western blot analysis; type: cell-based; conditions: dose 0.001-10 µM
MCF7 [16] = test: Antitumor activity against human MCF7 cells xenografted in nude mouse assessed as reduction in Ki67 expression at 30 mg/kg,po for 30 days daily by immunohistochemical analysis; type: functional, organism-based; conditions: time 30.0 day
Mus musculus [17] = test: In vivo ER degradation in mouse xenografted with human MCF7 cells assessed as reduction in ER expression level in tumor at 30 mg/kg,po for 30 days daily by […]; type: functional, organism-based; conditions: time 30.0 day
MCF7 [18] = test: Induction of ER degradation in Estradiol stimulated human MCF7 cells assessed as decrease in GREB1 mRNA expression level at 1 to 10 uM incubated for 24 hrs by RT-qPCR analysis; type: cell-based; conditions: dose 1-10 µM
MCF7 [19] = test: Induction of ER degradation in human MCF7 cells transfected with ERE-luciferase plasmid assessed as decrease in estradiol induced ERE-luciferase activity by measuring luminescence at 10 uM incubated for 24 hrs by luciferase assay; type: cell-based
MCF7 [20] = test: Induction of ER degradation in Estradiol stimulated human MCF7 cells assessed as decrease in PGR gene expression level at 1 to 10 uM incubated for 24 hrs by RT-qPCR analysis; type: cell-based; conditions: dose 1-10 µM
MCF7 [21] = test: Induction of ER degradation in human MCF7 cells at 10 uM incubated for 24 hrs by DAPI staining based immunofluorescence analysis; type: cell-based
[22] = Toxicity in mouse xenografted with human MCF7 cells assessed as morphological changes in liver at 30 mg/kg,po for 30 days daily by Hematoxylin and eosin staining based microscopy; type: organism-based; conditions: in vivo, 720 h, time 30 day
[23] = Toxicity in mouse xenografted with human MCF7 cells assessed as morphological changes in kidney at 30 mg/kg,po for 30 days daily by Hematoxylin and eosin staining based microscopy; type: organism-based; conditions: in vivo, 720 h, time 30 day
[24] = Toxicity in Sprague-Dawley rat uterus assessed as increase in uterine wet weight at 0.1 mg/kg, po for 2 days consecutively; type: organism-based; conditions: in vivo, 48 h, time 2 day
[25] = MRT (0 to infinity) in ICR mouse at 30 mg/kg, po and measured upto 24 hrs by LC-MS analysis; type: ADME, organism-based; conditions: in vivo
[26] = Tmax in ICR mouse at 3 mg/kg, iv and measured upto 24 hrs by LC-MS analysis; type: ADME, organism-based; conditions: in vivo
[27] = Half life in ICR mouse at 3 mg/kg, iv and measured upto 24 hrs by LC-MS analysis; type: ADME, organism-based; conditions: in vivo
[28] = Cmax in ICR mouse at 3 mg/kg, iv and measured upto 24 hrs by LC-MS analysis; type: ADME, organism-based; set-up: dose 3 mg/kg, time < 24 hrs, route iv; conditions: in vivo
[29] = AUCt in ICR mouse at 3 mg/kg, iv and measured upto 24 hrs by LC-MS analysis; type: ADME, organism-based; set-up: dose 3 mg/kg, time < 24 hrs, route iv; conditions: in vivo
[30] = Apparent volume of distribution in ICR mouse at 3 mg/kg, iv and measured upto 24 hrs by LC-MS analysis; type: ADME, organism-based; conditions: in vivo, read-out: Vz
[31] = Oral bioavailability in ICR mouse at 30 mg/kg and measured upto 24 hrs by LC-MS analysis; type: ADME, organism-based; conditions: in vivo
[32] = Half life in ICR mouse at 30 mg/kg, po and measured upto 24 hrs by LC-MS analysis; type: ADME, organism-based; conditions: in vivo
[33] = MRT (0 to infinity) in ICR mouse at 3 mg/kg, iv and measured upto 24 hrs by LC-MS analysis; type: ADME, organism-based; conditions: in vivo
[34] = AUCt in ICR mouse at 30 mg/kg, po and measured upto 24 hrs by LC-MS analysis; type: ADME, organism-based; set-up: time < 24 hrs, dose 30 mg/kg, route po; conditions: in vivo
[35] = AUC (0 to infinity) in ICR mouse at 30 mg/kg, po and measured upto 24 hrs by LC-MS analysis; type: ADME, organism-based; set-up: time < 24 hrs, dose 30 mg/kg, route po; conditions: in vivo
[36] = MRT(t) in ICR mouse at 3 mg/kg, iv and measured upto 24 hrs by LC-MS analysis; type: ADME, organism-based; conditions: in vivo
[37] = Cmax in ICR mouse at 30 mg/kg, po and measured upto 24 hrs by LC-MS analysis; type: ADME, organism-based; set-up: time < 24 hrs, dose 30 mg/kg, route po; conditions: in vivo
[38] = Tmax in ICR mouse at 30 mg/kg, po and measured upto 24 hrs by LC-MS analysis; type: ADME, organism-based; conditions: in vivo
[39] = Clearance in ICR mouse at 3 mg/kg, iv and measured upto 24 hrs by LC-MS analysis; type: ADME, organism-based; conditions: in vivo
[40] = AUC (0 to infinity) in ICR mouse at 3 mg/kg, iv and measured upto 24 hrs by LC-MS analysis; type: ADME, organism-based; set-up: time < 24 hrs, dose 3 mg/kg, route iv; conditions: in vivo
[41] = MRT(t) in ICR mouse at 30 mg/kg, po and measured upto 24 hrs by LC-MS analysis; type: ADME, organism-based; conditions: in vivo
[42] = C0 in ICR mouse at 3 mg/kg, iv and measured upto 24 hrs by LC-MS analysis; type: ADME, organism-based; conditions: in vivo

Structure (SMILES): CC/C(=C(\c1ccccc1)c1ccc(OCCN(C)C)cc1)c1ccccc1 [TAMOXIFEN]
Activity (MCF7 [1]): 67.34%
Activity [2]: Toxic
inhibition at 20 µM (Ishikawa): 50%
Activity (MCF7 [3]): Active
Activity (MCF7 [4]): Active
IC50 (MCF7 [5]): 2330 nM

Structure (SMILES): O=C(O)/C=C/c1ccc(Oc2c(C(=O)c3ccccc3)sc3cc(F)ccc23)cc1
inhibition at 20 µM (Ishikawa): 8%
concentration at 0.5 h [6]: 16000 ng/mL
concentration at 0.25 h [7]: 9860 ng/mL
IC50 (MCF7 [5]): 2120 nM
concentration at 1 h [8]: 15600 ng/mL
Activity (MCF7 [9]): Active

Structure (SMILES): CCc1ccccc1C(=O)c1sc2cc(F)ccc2c1Oc1ccc(/C=C/C(=O)O)cc1
inhibition at 20 µM (Ishikawa): 12%
IC50 (MCF7 [5]): 370 nM
Activity (MCF7 [9]): Active

Structure (SMILES): Cc1ccc(C(=O)c2sc3cc(F)ccc3c2Oc2ccc(/C=C/C(=O)O)cc2)c(C)c1
Activity (Mus musculus [10]): Active
Activity (MCF7 [1]): 57.36%
Activity [2]: Non-Toxic
inhibition at 20 µM (Ishikawa): 13%
Activity (MCF7 [11]): Active
Activity [12]: Non-Toxic
Activity (MCF7 [3]): Active
Activity [13]: Non-Toxic
Activity [14]: Non-Toxic
Activity (MCF7 [15]): Dose-Dependent Effect
Activity (MCF7 [16]): Active
Activity (Mus musculus [17]): Active
IC50 (MCF7 [5]): 200 nM
Activity (MCF7 [18]): Active
Activity (MCF7 [19]): Active
Activity (MCF7 [20]): Active
Activity (MCF7 [9]): Active
Activity (MCF7 [21]): Active
Activity [22]: Non-Toxic
Activity [23]: Non-Toxic

Structure (SMILES): Cc1cc(Oc2c(C(=O)c3ccccc3)sc3cc(F)ccc23)ccc1/C=C/C(=O)O
inhibition at 20 µM (Ishikawa): 19%
IC50 (MCF7 [5]): 670 nM
Activity (MCF7 [9]): Active

Structure (SMILES): C[C@]12CC[C@@H]3c4ccc(O)cc4CC[C@H]3[C@@H]1CC[C@@H]2O [ESTRADIOL]
Activity [24]: Toxic

Structure (SMILES): O=C(O)/C=C/c1ccc(Oc2c(C(=O)c3ccc4ccncc4c3)sc3cc(F)ccc23)cc1
inhibition at 20 µM (Ishikawa): 36%
IC50 (MCF7 [5]): > 20000 nM
Activity (MCF7 [9]): Active

Structure (SMILES): Cc1cc(F)ccc1C(=O)c1sc2cc(F)ccc2c1Oc1ccc(/C=C/C(=O)O)cc1
inhibition at 20 µM (Ishikawa): 11%
IC50 (MCF7 [5]): 360 nM
Activity (MCF7 [9]): Active

Structure (SMILES): CC(C)c1ccccc1C(=O)c1sc2cc(F)ccc2c1Oc1ccc(/C=C/C(=O)O)cc1
inhibition (Ishikawa; time 3.0 day): inactive
IC50 (MCF7 [5]): 320 nM
Activity (MCF7 [9]): Active

Further lines, with some results ahead:

IC50 (MCF7 [5]): 5830 nM
Structure (SMILES): O=C(O)/C=C/c1ccc(Oc2c(C(=O)c3cccc(F)c3)sc3cc(F)ccc23)cc1
inhibition at 20 µM (Ishikawa): 9%
Activity (MCF7 [9]): Active

MRT inf [25]: 6.06 h
Tmax [26]: 1.8 min
half-life [27]: 73.8 min
Cmax [28]: 4500 ng/mL
AUC(0-t) at 24 h [29]: 4610 ng·h/mL
Vd [30]: 1.13 L/kg
bioavailability [31]: 62.9%
half-life [32]: 188 min
MRT inf [33]: 1.04 h
AUC(0-t) at 24 h [34]: 26600 ng·h/mL
AUC(0-inf) [35]: 29200 ng·h/mL
IC50 (MCF7 [5]): 55 nM
MRT last at 24 h [36]: 58.7 min
Cmax [37]: 5530 ng/mL
Tmax [38]: 20 min
clearance [39]: 11 mL/min/kg
AUC(0-inf) [40]: 4640 ng·h/mL
MRT last at 24 h [41]: 4.39 h
C0 at 24 h [42]: 4840 ng/mL
Structure (SMILES): Cc1cc(F)cc(C)c1C(=O)c1sc2cc(F)ccc2c1Oc1ccc(/C=C/C(=O)O)cc1
Activity (Mus musculus [10]): Active
Activity (MCF7 [1]): 56.1%
Activity [2]: Non-Toxic
inhibition at 20 µM (Ishikawa): 12%
Activity (MCF7 [11]): Active
Activity [12]: Non-Toxic
Activity (MCF7 [3]): Active
Activity [13]: Non-Toxic
Activity [14]: Non-Toxic
Activity (MCF7 [15]): Dose-Dependent Effect
Activity (MCF7 [16]): Active
Activity (Mus musculus [17]): Active
Activity (MCF7 [18]): Active
Activity (MCF7 [19]): Active
Activity (MCF7 [20]): Active
Activity (MCF7 [9]): Active
Activity (MCF7 [21]): Active
Activity [22]: Non-Toxic
Activity [23]: Non-Toxic

IC50 (MCF7 [5]): 1440 nM
Structure (SMILES): O=C(O)/C=C/c1ccc(Oc2c(C(=O)c3ccc(OC(F)(F)F)cc3)sc3cc(F)ccc23)cc1
inhibition at 20 µM (Ishikawa): 18%
Activity (MCF7 [9]): Active

IC50 (MCF7 [5]): 8570 nM
Structure (SMILES): O=C(O)/C=C/c1ccc(Oc2c(C(=O)c3cccc4ccccc34)sc3cc(F)ccc23)cc1
inhibition at 20 µM (Ishikawa): 8%
Activity (MCF7 [9]): Active
